In one assay the test system is MCF-7 (breast cancer). In words: MTT cell viability assay, MCF-7. Format: cell-based, human. To be noted: for IC50: Homo sapiens, MCF7, 72 h, MTT assay, 72 h of incubation; for Selectivity Index (SI) MCF-7: IC50 value toward HaCaT cells/IC50 value toward MCF-7. In outline: (§1)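 Cells in DMEM with 10% FBS, 3 × 10^3 per well, exposed to compounds at 1–100 µM for 72 h at 37 °C. MTT at 0.5 mg/mL for 2 h, formazan dissolved in DMSO and read at 550 nm. Mean ± SD of at least three independent experiments, each in triplicate.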
A general note: Formazan colour is commonly taken as a measure of viable cells.

The subject of assay [1] is HaCaT (human keratinocyte cell line). In words: MTT cell viability assay, non-cancerous HaCaT. Format: cell-based. The conditions noted are these: Homo sapiens, HaCaT, 72 h, 72 h of incubation, non-cancerous keratinocytes. In outline: as §1
For another assay, the system named is HeLa (cervical cancer). Put plainly: MTT cell viability assay, HeLa. It is filed as cell-based, human. To be noted: for IC50: Homo sapiens, HeLa, MTT assay, 72 h of incubation; for Selectivity Index (SI) HeLa: IC50 value toward HaCaT cells/IC50 value toward HeLa. In outline: (§2)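 HCT-116 and HeLa cells in DMEM/10% FBS exposed 72 h to compounds over 1–100 µM. Viability by MTT (0.5 mg/mL, 2 h, 37 °C), formazan dissolved in DMSO and read at 550 nm; mean ± SD of at least three independent experiments.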

The next assay has as its system HCT-116 (colon cancer). Put plainly: MTT cell viability assay, HCT-116. Format: cell-based, human. The conditions noted are these: for IC50: MTT assay, 72 h of incubation; for Selectivity Index (SI) HCT-116: IC50 value toward HaCaT cells/IC50 value toward HCT-116. In outline:
as §2

The structures appear in SMILES notation.

The IC50 is the concentration needed to halve the response being measured. The low end stands for greater potency in that assay, the high end for weaker potency in that assay.

Consider `Cc1cc(S(=O)(=O)N=C2NCCN2Cc2cc(C(F)(F)F)cc(C(F)(F)F)c2)c(SCc2nc(N)nc(Nc3ccccc3)n2)cc1Cl` [Compound 146], for which the IC50 in the assay on MCF-7 (breast cancer) amounted to 12.5 ± 0.6 µM; in assay [1], 32 ± 1 µM; in the assay on HeLa (cervical cancer), 15 ± 1 µM; in the assay on HCT-116 (colon cancer) (Homo sapiens, HCT-116, 72 h), 11.5 ± 0.5 µM.
In the case of `Cc1cc(S(=O)(=O)N=C2NCCN2Cc2cc(C(F)(F)F)cc(C(F)(F)F)c2)c(SCc2nc(N)nc(Nc3ccc(C(F)(F)F)cc3)n2)cc1Cl` [Compound 147], the IC50 in the assay with MCF-7 (breast cancer) is 8 ± 0.2 µM; in assay [1], 28 ± 1 µM; in the assay with HeLa (cervical cancer), 15 ± 1 µM; in the assay with HCT-116 (colon cancer) (Homo sapiens, HCT-116, 72 h), 6.5 ± 0.3 µM.
On the same counts, the results for `Cc1cc(S(=O)(=O)N=C2NCCN2Cc2cc(C(F)(F)F)cc(C(F)(F)F)c2)c(SCc2nc(N)nc(NCc3ccccc3)n2)cc1Cl` [Compound 148] are 8.5 ± 0.5 µM, 29 ± 1 µM, 15 ± 1 µM and 9.5 ± 0.2 µM.
On the same counts, the results for `Cc1cc(S(=O)(=O)N=C2NCCN2Cc2cc(C(F)(F)F)cc(C(F)(F)F)c2)c(SCc2nc(N)nc(N(C)c3ccc(Cl)cc3)n2)cc1Cl` [Compound 149] are 11 ± 0.5 µM, 33 ± 1 µM, 18 ± 1 µM and 11.5 ± 0.6 µM.
For the compound `Cc1cc(S(=O)(=O)N=C2NCCN2Cc2cc(C(F)(F)F)cc(C(F)(F)F)c2)c(SCc2nc(N)nc(N3CCN(c4ccccc4)CC3)n2)cc1Cl` [Compound 150], the IC50 in the assay with MCF-7 (breast cancer) is 4.5 ± 0.2 µM; in assay [1], 23 ± 1 µM; in the assay on HeLa (cervical cancer) it was 11 ± 0.3 µM; in the assay with HCT-116 (colon cancer) (Homo sapiens, HCT-116, 72 h), less than 6 µM; in the assay with HCT-116 (colon cancer) it was 3.6 ± 0.2 µM. In addition, the “Selectivity Index (SI) MCF-7” value in the assay with MCF-7 (breast cancer) was 5.1. For the same compound, the “Selectivity Index (SI) HeLa” value with HeLa (cervical cancer) turned out to be 2.0. For the same compound, in the assay on HCT-116 (colon cancer), the “Selectivity Index (SI) HCT-116” value turned out to be 6.4.
`Cc1cc(S(=O)(=O)N=C2NCCN2Cc2cc(C(F)(F)F)cc(C(F)(F)F)c2)c(SCc2nc(N)nc(N3CCN(c4ccc(F)cc4)CC3)n2)cc1Cl` [Compound 151]: the IC50 with MCF-7 (breast cancer) is 6 ± 0.1 µM; in assay [1], 28 ± 1 µM; in the assay with HeLa (cervical cancer) it was 15 ± 1 µM; in the assay on HCT-116 (colon cancer) (Homo sapiens, HCT-116, 72 h) it was 6 ± 0.1 µM.
Regarding `Cc1cc(S(=O)(=O)N=C2NCCN2Cc2cc(C(F)(F)F)cc(C(F)(F)F)c2)c(SCc2nc(N)nc(N3CCN(c4ccccc4F)CC3)n2)cc1Cl` [Compound 152], the IC50 was 6.5 ± 0.3 µM in the assay with MCF-7 (breast cancer); 29 ± 1 µM in assay [1]; 15.5 ± 1 µM in the assay with HeLa (cervical cancer); 6.5 ± 0.3 µM in the assay with HCT-116 (colon cancer) (Homo sapiens, HCT-116, 72 h).
`Cc1cc(S(=O)(=O)N=C2NCCN2Cc2cc(C(F)(F)F)cc(C(F)(F)F)c2)c(SCc2nc(N)nc(N3CCN(c4cccc(C(F)(F)F)c4)CC3)n2)cc1Cl` [Compound 153]: the IC50 in the assay on MCF-7 (breast cancer) came to 8 ± 0.2 µM; in assay [1], 19 ± 0.5 µM; in the assay with HeLa (cervical cancer), 9 ± 0.5 µM; in the assay on HCT-116 (colon cancer) (Homo sapiens, HCT-116, 72 h), 6 ± 0.3 µM.
With `Cc1cc(S(=O)(=O)N=C2NCCN2Cc2cc(C(F)(F)F)cc(C(F)(F)F)c2)c(SCc2nc(N)nc(N3CCN(c4ccc(Cl)cc4)CC3)n2)cc1Cl` [Compound 154], the IC50 in the assay on MCF-7 (breast cancer) is 6.5 ± 0.2 µM; in assay [1], 26 ± 1 µM; in the assay on HeLa (cervical cancer), 12 ± 1 µM; in the assay with HCT-116 (colon cancer) (Homo sapiens, HCT-116, 72 h) it was 5 ± 0.1 µM.
Regarding `Cc1cc(S(=O)(=O)N=C2NCCN2Cc2cc(C(F)(F)F)cc(C(F)(F)F)c2)c(SCc2nc(N)nc(N3CCN(c4ccc(Cl)c(Cl)c4)CC3)n2)cc1Cl` [Compound 155], the IC50 was 6 ± 0.1 µM in the assay on MCF-7 (breast cancer); 19 ± 1 µM in assay [1]; 10 ± 0.1 µM in the assay with HeLa (cervical cancer); 5 ± 0.1 µM in the assay on HCT-116 (colon cancer) (Homo sapiens, HCT-116, 72 h).
On the same counts, the results for `Cc1cc(S(=O)(=O)N=C2NCCN2Cc2cc(C(F)(F)F)cc(C(F)(F)F)c2)c(SCc2nc(N)nc(N3CCN(Cc4ccccc4)CC3)n2)cc1Cl` [Compound 156] are 7.5 ± 0.4 µM, 17 ± 1 µM, 5.5 ± 0.2 µM and 4.8 ± 0.1 µM.
Regarding `Cc1cc(S(=O)(=O)N=C2NCCN2Cc2cc(C(F)(F)F)cc(C(F)(F)F)c2)c(SCc2nc(N)nc(N3CCC(Cc4ccccc4)CC3)n2)cc1Cl` [Compound 157], the IC50 with MCF-7 (breast cancer) is 6 ± 0.3 µM; in assay [1], 23 ± 1 µM; with HeLa (cervical cancer), 13 ± 0.5 µM; in the assay with HCT-116 (colon cancer) (Homo sapiens, HCT-116, 72 h), 5 ± 0.1 µM. Moreover, in the assay on MCF-7 (breast cancer), the “Selectivity Index (SI) MCF-7” value is 3.8. Moreover, the “Selectivity Index (SI) HeLa” value in the assay on HeLa (cervical cancer) came out at 1.7. The “Selectivity Index (SI) HCT-116” value with HCT-116 (colon cancer) came out at 4.6.
With `Cc1cc(S(=O)(=O)N=C2NCCCN2Cc2ccc(C(F)(F)F)cc2)c(SCc2nc(N)nc(N3CCCc4ccccc43)n2)cc1Cl` [Compound 158], the IC50 in the assay on MCF-7 (breast cancer) came to 8 ± 0.4 µM; in assay [1] it was 17 ± 1 µM; in the assay with HeLa (cervical cancer), 6 ± 0.3 µM; in the assay on HCT-116 (colon cancer) (Homo sapiens, HCT-116, 72 h) it was 5 ± 0.3 µM.
As for `Cc1cc(S(=O)(=O)N=C2NCCCN2Cc2ccc(C(F)(F)F)cc2)c(SCc2nc(N)nc(N3CCN(c4ccccc4)CC3)n2)cc1Cl` [Compound 159], the IC50 came out at 10 ± 0.3 µM with MCF-7 (breast cancer); 29 ± 1 µM in assay [1]; 15.5 ± 0.5 µM in the assay with HeLa (cervical cancer); 9 ± 0.5 µM in the assay on HCT-116 (colon cancer) (Homo sapiens, HCT-116, 72 h).
On the same counts, the results for `Cc1cc(S(=O)(=O)N=C2NCCCN2Cc2ccc(C(F)(F)F)cc2)c(SCc2nc(N)nc(N3CCN(c4cccc(C(F)(F)F)c4)CC3)n2)cc1Cl` [Compound 160] are 12 ± 0.5 µM, 23 ± 1 µM, 8.5 ± 0.3 µM and 10.5 ± 0.4 µM.
Take `Cc1cc(S(=O)(=O)N=C2NCCCN2Cc2ccc(C(F)(F)F)cc2)c(SCc2nc(N)nc(N3CCN(c4ccc(Cl)cc4)CC3)n2)cc1Cl` [Compound 161]: the IC50 stood at 6.5 ± 0.2 µM with MCF-7 (breast cancer); 27 ± 1 µM in assay [1]; 14 ± 0.5 µM in the assay on HeLa (cervical cancer); 6.5 ± 0.1 µM with HCT-116 (colon cancer) (Homo sapiens, HCT-116, 72 h).
As for `Cc1cc(S(=O)(=O)N=C2NCCCN2Cc2ccc(C(F)(F)F)cc2)c(SCc2nc(N)nc(N3CCN(Cc4ccccc4)CC3)n2)cc1Cl` [Compound 162], the IC50 with MCF-7 (breast cancer) was 6 ± 0.2 µM; in assay [1] it was 25 ± 0.7 µM; in the assay with HeLa (cervical cancer), 12.5 ± 0.5 µM; in the assay on HCT-116 (colon cancer) (Homo sapiens, HCT-116, 72 h), less than 6 µM; in the assay with HCT-116 (colon cancer) it was 5.5 ± 0.3 µM. Also, the “Selectivity Index (SI) MCF-7” value in the assay on MCF-7 (breast cancer) is 4.1. Moreover, the “Selectivity Index (SI) HeLa” value in the assay on HeLa (cervical cancer) is recorded as 2.0. For the same compound, the “Selectivity Index (SI) HCT-116” value in the assay on HCT-116 (colon cancer) came to 4.5.

For the origin of these results see article PMC9267128, “New 2-[(4-Amino-6-N-substituted-1,3,5-triazin-2-yl)methylthio]-N-(imidazolidin-2-ylidene)-4-chloro-5-methylbenzenesulfonamide Derivatives, Design, Synthesis and Anticancer Evaluation” (International Journal of Molecular Sciences, 2022).
